In patent US20260250426A1, “AMPHIPHILIC CELLULOSE DERIVATIVES, METHODS OF MAKING, AND USES THEREOF” (Virginia Tech Intellectual Properties, Inc., priority 2022, published 2026):

Experiment: Polymer solubility in pH 6.8 buffer (visual inspection)
Experimental: A general workflow for evaluating cellulose ester derivatives for ASD applications can include evaluating polymer solubility, nucleation time, and surface tension. Polymer solubility was evaluated by examining solubility in pH 6.8 buffer and organic solvents. Nucleation induction time was measured using 9 different polymers and 3 model therapeutic compounds. Surface tension was determined by correlating surface tension and induction time.

For CA320S Glutarate [CA320GA], the “Water solubility (in words)” value was “water-soluble”.
